Test results as given in patent US20250381129A1, “ANTI-AGING SKIN CARE COMPOSITION” (L'OREAL, priority 2024, published 2025).

What was measured:
Conditions in all cases: topical, 5 consecutive days, HPR 0.01%, LA 3%, Eperuline 1% or 3%
IL-23 = test: Quantification of secreted IL-23 in culture supernatant of CSC-stimulated human ex-vivo skin (ProcartaPlex/Luminex)
Protocol: (§1) Human ex-vivo skin was cultured with or without CSC and topically treated with either HPR, HPR-LA, HPR-Eperuline and HPR-LA-Eperuline for 5 days consecutive days (See FIG. 2B; See Table 4 for concentrations).
(§2) Skin tissues were divided into groups of three and placed in the 24-well transwell plates, […] (Cell stimulation cocktail 500×(50-930-5)) was diluted to a 2× concentration in culture media and 650 uL was added to the well on the first day. Topical treatments were undertaken daily by pipetting 5 uL of treatments onto the tissue and using a Q-tip, spreading treatments across the tissue and left to absorb at room temperature for 30 minutes. Base media without stimulants served as the control group. Tissues were replenished with fresh media with the stimulant on day 1 and 3. On days 1, 3 and 5, supernatant from the culture was collected and aliquoted, and the tissues were bisected and fixed in 10% neutral buffered formalin (Fisher Scientific 22-126-347) for 3 h and then switched to 70% ethanol for storage until histology.
(§3) Tissue culture supernatant was collected at the end of the cultures to evaluate the secretion of several cytokines, chemokines, and growth factors. […]
(§4) Data were assessed using a two-way ANOVA with multiple comparison test. […]

[1] = tested on: CSC-stimulated human ex-vivo skin; test: H&E histological analysis of CSC-stimulated human ex-vivo skin
Protocol: as §1
Fresh human ex-vivo skin was obtained through donor informed consent following abdominoplasty procedures. The tissues were obtained through BioIVT (Westbury, NY, USA) following an approved IRB protocol and shipped to a BSC level 2 research laboratory within 24 h after the procedure where the experiments took place. All experiments were performed in accordance with relevant guidelines and regulations. Donors included a person, person and person. Ex vivo tissues were prepared by excising the subcutaneous fat followed by punch biopsies with disposable 12 mm Skin Biopsy Punch (Fisher Scientific, NC9253254) and placed in 24-well transwell plates with permeable polyester membrane inserts (Fisher Scientific, 07-200-161). At least three biopsies were used for each condition.
Skin tissues were divided into groups of three and placed in the 24-well transwell plates, […] (Cell stimulation cocktail 500×(50-930-5)) was diluted to a 2× concentration in culture media and 650 uL was added to the well on the first day. […]

IL-1A = test: Quantification of secreted IL-1A in culture supernatant of CSC-stimulated human ex-vivo skin (ProcartaPlex/Luminex)
Protocol: as §1, §2, §3, §4

## CC1=C(/C=C/C(C)=C/C=C/C(C)=C/C(=O)OCC(=O)C(C)(C)C)C(C)(C)CCC1 [HPR, hydroxypinacolone retinoate]
IL-23
  secreted IL-23: significant increase
[1]
  histological signs of inflammation (epidermal spongiosis, immune infiltration): exacerbated
IL-1A
  secreted IL-1A: significant increase
